We go through two molecules from US9457033B2, “Steroid alkaloids and uses thereof as antimicrobial agents against electron transport-deficient microbes and as potentiators for antimicrobial agents against pathogenic bacteria” (priority 2011, dated 2016).

Converted amounts (≈) assume the structure as drawn. Where two headings read alike, the source gives them in different places.

One test relates to S. aureus ATCC 29213. Briefly: MIC, microdilution in CAMHB 24 h, with or without tomatidine/compound. It counts as cell-based, Staphylococcus aureus. For orientation: Broth dilution looks for growth in wells or tubes with falling amounts of substance.
The next test concerns S. aureus 8325-4. Briefly: MIC, microdilution in CAMHB 24 h. The following applies: 8325-4; Laboratory strain. It counts as cell-based, Staphylococcus aureus.
The test system of another test is S. aureus Newbould. Briefly: MIC, microdilution in CAMHB 24 h. It is filed as cell-based, Staphylococcus aureus. The following applies: Newbould; Cow (mastitis).
Another test has as its system S. aureus SHY97-3906. Briefly: MIC, microdilution in CAMHB 24 h. It counts as cell-based, Staphylococcus aureus. The following applies: SHY97-3906; Cow (mastitis).
The test system of a further test is S. aureus ATCC 43300. Briefly: MIC, microdilution in CAMHB 24 h. It counts as cell-based, Staphylococcus aureus. The following applies: ATCC 43300; Human (HA); MRSA.
The next test has as its system S. aureus ATCC BAA-41. Briefly: MIC, microdilution in CAMHB 24 h. As to conditions: ATCC BAA-41; Human (HA); MRSA. It is filed as cell-based, Staphylococcus aureus.
A further test deals with S. aureus N315. Briefly: microbe, parasite or virus in culture. It counts as cell-based, Staphylococcus aureus. The following applies: N315; Human (HA); MRSA.
The next test relates to S. aureus MA078038. Briefly: MIC, microdilution in CAMHB 24 h. It counts as cell-based, Staphylococcus aureus. The following applies: MA078038; Human (CA); MRSA.
The subject of another test is S. aureus Newman. Briefly: MIC, microdilution in CAMHB 24 h. As to conditions: Newman; Human (Osteo). It counts as cell-based, Staphylococcus aureus.
The subject of the next test is S. aureus MRSA COL. Briefly: MIC, microdilution in CAMHB 24 h. It counts as cell-based, Staphylococcus aureus. As to conditions: MRSA COL; Human (SSTI).
Another test relates to S. aureus Mu50. Briefly: MIC, microdilution in CAMHB 24 h. It counts as cell-based, Staphylococcus aureus. The following applies: Mu50; Human (SSTI); MRSA, VISA.
Another test deals with S. aureus Sa220c. Briefly: MIC, microdilution in CAMHB 24 h. It counts as cell-based, Staphylococcus aureus. As to conditions: Sa220c; Human (SSTI); MRSA.
Another test relates to S. aureus Sa228c. Briefly: MIC, microdilution in CAMHB 24 h. It is filed as cell-based, Staphylococcus aureus. As to conditions: Sa228c; Human (SSTI); MRSA.
For a further test, the system named is S. aureus CF1A-L. Briefly: MIC, microdilution in CAMHB 24 h. As to conditions: CF1A-L; Human (CF lungs). It counts as cell-based, Staphylococcus aureus.
Another test has as its system S. aureus CF2A-L. Briefly: MIC, microdilution in CAMHB 24 h. It counts as cell-based. As to conditions: CF2A-L; Human (CF lungs).
A further test relates to S. aureus CF4B-L. Briefly: MIC, microdilution in CAMHB 24 h. It is filed as cell-based, Staphylococcus aureus. As to conditions: CF4B-L; Human (CF lungs).
The next test concerns S. aureus CF6B-L. Briefly: MIC, microdilution in CAMHB 24 h. The following applies: CF6B-L; Human (CF lungs). It is filed as cell-based, Staphylococcus aureus.
The test system of a further test is S. aureus CF7A-L. Briefly: MIC, microdilution in CAMHB 24 h. As to conditions: CF7A-L; Human (CF lungs); MRSA. It is filed as cell-based, Staphylococcus aureus.
A further test relates to S. aureus CF8E-L. Briefly: MIC, microdilution in CAMHB 24 h. It is filed as cell-based, Staphylococcus aureus. The following applies: CF8E-L; Human (CF lungs).
In a further test the test system is S. aureus CF9A-L. Briefly: MIC, microdilution in CAMHB 24 h. It counts as cell-based, Staphylococcus aureus. As to conditions: CF9A-L; Human (CF lungs); MRSA.
The subject of a further test is S. aureus CF35A-L. Briefly: MIC, microdilution in CAMHB 24 h. The following applies: CF35A-L; Human (CF lungs); MRSA. It is filed as cell-based, Staphylococcus aureus.
A further test concerns S. aureus CF07-L. Briefly: MIC, microdilution in CAMHB 24 h. It counts as cell-based, Staphylococcus aureus. As to conditions: CF07-L; Human (CF lungs).
Test [1] concerns S. aureus SCV strain NewbouldΔhemB. Briefly: MIC of compounds against SCV. It counts as cell-based, Staphylococcus aureus. As to conditions: Staphylococcus aureus, read-out: MIC of Cpd against SCV hemB.

As to `CN(C)[C@@H]1C(=O)C(C(N)=O)=C(O)[C@@]2(O)C(=O)C3=C(O)c4c(O)cccc4[C@@](C)(O)[C@H]3C[C@@H]12` [Tetracycline, tetracycline], the MIC against S. aureus ATCC 29213 (ATCC 29213, Human (SSTI)) is 0.25 to 0.5 µg/mL; with S. aureus 8325-4, 0.25 µg/mL (≈ 0.563 µM); in the test on S. aureus Newbould, 0.25 to 0.5 µg/mL; in the test on S. aureus SHY97-3906 it was 0.25 to 0.5 µg/mL; in the test on S. aureus ATCC 43300 it was 0.5 µg/mL (≈ 1.13 µM); with S. aureus ATCC BAA-41, 0.5 µg/mL (≈ 1.13 µM). Besides, the MIC against S. aureus N315 is 0.5 µg/mL (≈ 1.13 µM); with S. aureus MA078038, 0.5 µg/mL (≈ 1.13 µM); in the test with S. aureus Newman it was 0.25 to 0.5 µg/mL; against S. aureus MRSA COL, 1 to 2 µg/mL; with S. aureus Mu50 it was >16 (R) μg/ml; against S. aureus Sa220c, 0.5 µg/mL (≈ 1.13 µM). The MIC was >16 (R) μg/ml with S. aureus Sa228c; 0.25 µg/mL (≈ 0.563 µM) in the test with S. aureus CF1A-L; 2 µg/mL (≈ 4.5 µM) against S. aureus CF2A-L; 0.25 µg/mL (≈ 0.563 µM) in the test with S. aureus CF4B-L; 0.25 µg/mL (≈ 0.563 µM) with S. aureus CF6B-L; 0.25 to 0.5 µg/mL with S. aureus CF7A-L. Further, the MIC in the test with S. aureus CF8E-L is 0.25 to 0.5 µg/mL; against S. aureus CF9A-L it was 0.25 to 0.5 µg/mL; with S. aureus CF35A-L, 0.5 µg/mL (≈ 1.13 µM); with S. aureus CF07-L, 0.5 µg/mL (≈ 1.13 µM). For the same molecule, the “MIC −TO” value against S. aureus ATCC 29213 (ATCC 29213, absence of tomatidine) lay in the range of 0.25 to 0.5 µg/mL. In addition, in the test on S. aureus ATCC 29213 (ATCC 29213, presence of tomatidine at 8 μg/ml), the “MIC +TO” value was 0.25 to 0.5 µg/mL. Moreover, the “Fold (−TO/+TO)” value in the test with S. aureus ATCC 29213 (ATCC 29213, tomatidine at 8 μg/ml) was 1 fold.
For the molecule `C[C@H]1CC[C@]2(NC1)O[C@@]1(C)C[C@@]3(C)[C@@H]4CC[C@@]5(C)C[C@@H](O)CC[C@]5(C)[C@@]4(C)CC[C@]3(C)[C@@]1(C)[C@@H]2C.O=C(O)CC(O)(CC(=O)O)C(=O)O` [Compound 58, tomatidine citrate], the MIC with S. aureus ATCC 29213 (Staphylococcus aureus, ATCC29213, read-out: MIC of Cpd against ATCC29213) is over 16 µg/mL; in [1], at most 0.5 µg/mL. Further, in the test with S. aureus ATCC 29213 (gentamicin with 8 μg/ml of Cpd, provided in categories of synergy (1-2 no or mild; 4-16 moderate or strong)), the “Fold (MIC of GEN alone/MIC of GEN with Cpd)” value is 4-16 fold.
